Data set [1] in a line: Drug metabolism in iv or po dosed Sprague-Dawley rat plasma assessed as oxidation of phenyl ring by LC-MS/MS method. The note with it: in vivo. In kind it is ADME, organism-based.
A short description of data set [2]: Kinetic solubility of the compound in HCl at pH 2 after 20 hrs by shake flask method. It counts as physicochemical. The settings on record: read-out: Kinetic_solubility.
Data set [3] can be described thus: Drug metabolism in iv or po dosed Sprague-Dawley rat plasma assessed as oxidation of pyridine ring by LC-MS/MS method. In kind it is ADME, organism-based. The note with it: in vivo.
Data set [4] is described as follows: Kinetic solubility of the compound in phosphate buffered saline at pH 6.5 after 20 hrs by shake flask method. It counts as physicochemical. The settings on record: read-out: Kinetic_solubility.
Data set [5] in a line: Kinetic solubility of the compound in FaSSIF at pH 6.5 after 20 hrs by shake flask method. It counts as physicochemical. The settings on record: read-out: Kinetic_solubility.

This is an account of results in ChEMBL document CHEMBL4184318, “Identification of Fast-Acting 2,6-Disubstituted Imidazopyridines That Are Efficacious in the in Vivo Humanized Plasmodium falciparum NODscidIL2Rγ null Mouse Model of Malaria” (J Med Chem, 2018).

Converted amounts (≈) assume the structure as drawn.

As to `Fc1ccc(Nc2cc3[nH]c(-c4ccc(F)c(F)c4)nc3cn2)nc1`, the Drug metabolism entry in data set [1] is “Metabolite_Notdetected”; in data set [3], “Metabolite_Detected”. Moreover, the solubility kinetic at 20 h is 42 µM (≈ 14.3 µg/mL) in data set [2], below 5 µM in data set [4] and 50 to 100 µM (≈ 17.1 to 34.1 µg/mL) in data set [5].

Turning to `FC(F)(F)c1ccc(Nc2cc3[nH]c(-c4cccc(C(F)(F)F)c4)nc3cn2)nc1`, the Drug metabolism entry was “Metabolite_Notdetected” in data set [1] and “Metabolite_Detected” in data set [3]. The figures for the solubility kinetic at 20 h in data set [2], in data set [4] and in data set [5] were below 5 µM, below 5 µM and 50 to 100 µM (≈ 21.2 to 42.3 µg/mL), respectively.

As for `O=C(c1ccc(Nc2cc3[nH]c(-c4ccc(C(F)(F)F)nc4)nc3cn2)nc1)N1CCNCC1`, the solubility kinetic at 20 h is 200 µM (≈ 93.7 µg/mL) in data set [2], 168 µM (≈ 78.7 µg/mL) in data set [4] and 161 µM (≈ 75.4 µg/mL) in data set [5].

As to `COC(=O)c1ccc(Nc2cc3[nH]c(-c4ccc(C(F)(F)F)nc4)nc3cn2)nc1`, the solubility kinetic at 20 h stood at 182 µM (≈ 75.4 µg/mL) in data set [2], 12 µM (≈ 4.97 µg/mL) in data set [4] and 16 µM (≈ 6.63 µg/mL) in data set [5].

For the compound `Fc1ccc(-c2nc3cnc(Nc4cc(C(F)(F)F)ccn4)cc3[nH]2)cc1F`, the solubility kinetic at 20 h was below 5 µM in data set [2], below 5 µM in data set [4] and 50 to 100 µM (≈ 19.6 to 39.1 µg/mL) in data set [5].

With `NC(=O)c1ccc(Nc2cc3[nH]c(-c4cccc(C(F)(F)F)c4)nc3cn2)nc1`, the solubility kinetic at 20 h in data set [2], in data set [4] and in data set [5] was below 5 µM in each case.

`O=C(O)c1ccc(Nc2cc3[nH]c(-c4cccc(C(F)(F)F)c4)nc3cn2)nc1`: the solubility kinetic at 20 h in data set [2] was below 5 µM; in data set [4], 6 µM (≈ 2.4 µg/mL); in data set [5] it was 6 µM (≈ 2.4 µg/mL).

In the case of `FC(F)(F)c1ccc(Nc2cc3[nH]c(C4CCOC4)nc3cn2)nc1` (stereo not given), the solubility kinetic at 20 h came to 200 µM (≈ 69.9 µg/mL) in data set [2], 166 µM (≈ 58 µg/mL) in data set [4] and 180 µM (≈ 62.9 µg/mL) in data set [5].

For `Fc1ccc(Nc2cc3[nH]c(C4CCC(F)(F)CC4)nc3cn2)nc1`, the solubility kinetic at 20 h is 200 µM (≈ 69.5 µg/mL) in data set [2], 170 µM (≈ 59 µg/mL) in data set [4] and 170 µM (≈ 59 µg/mL) in data set [5].

In the case of `Fc1ccc(Nc2cc3[nH]c(-c4cccc(C(F)(F)F)c4)nc3cn2)nc1`, the solubility kinetic at 20 h in data set [2] is below 5 µM; in data set [4], below 5 µM; in data set [5], 50 to 100 µM (≈ 18.7 to 37.3 µg/mL).

Take `FC(F)(F)c1cccc(-c2nc3cnc(Nc4cc(-c5nnn[nH]5)ccn4)cc3[nH]2)c1`: the solubility kinetic at 20 h in data set [2], in data set [4] and in data set [5] was below 5 µM each time.

On to `FC(F)(F)c1ccc(Nc2cc3[nH]c(CC4CC4)nc3cn2)nc1`, for which the solubility kinetic at 20 h in data set [2] came to 186 µM (≈ 62 µg/mL); in data set [4], 118 µM (≈ 39.3 µg/mL); in data set [5], 156 µM (≈ 52 µg/mL).
